Laboratory results reported in a compilation of properties of binary mixtures (doi:10.1016/j.molliq.2014.05.027).

Assay: xn = mol fraction of the nth substance listed
Details: 101 kPa

viscosity (293.15 K, x2 = 0) [mPa·s] | electrical conductivity (298.15 K, x1 = 0.002) [S/m] | electrical conductivity (298.15 K, x1 = 0.0071) [S/m] | electrical conductivity (298.15 K, x1 = 0.01) [S/m] | electrical conductivity (298.15 K, x2 = 0) [S/m] | viscosity (298.15 K, x2 = 0) [mPa·s] | electrical conductivity (298.15 K, x2 = 0.1092) [S/m] | electrical conductivity (298.15 K, x2 = 0.2563) [S/m] | electrical conductivity (298.15 K, x2 = 0.5026) [S/m] | electrical conductivity (298.15 K, x2 = 0.6515) [S/m] | electrical conductivity (298.15 K, x2 = 0.8065) [S/m] | electrical conductivity (298.15 K, x2 = 0.8514) [S/m] | electrical conductivity (298.15 K, x2 = 0.9001) [S/m] | electrical conductivity (298.15 K, x2 = 0.9252) [S/m] | viscosity (303.15 K, x2 = 0.7993) [mPa·s] | viscosity (308.15 K, x2 = 0) [mPa·s] | viscosity (293.15 K, x1 = 1) [mPa·s] | viscosity (298.15 K, x1 = 1) [mPa·s] | viscosity (303.15 K, x1 = 1) [mPa·s] | viscosity (313.15 K, x1 = 1) [mPa·s] | Compound
8.2 | 0.522 | 1.51 | 1.92 | 0.371 | 6.93 | 0.433 | 0.553 | 0.858 | 1.21 | 2 | 2.52 | 3.27 | 3.73 | 5.76 | 5.07 | – | – | – | – | CC(=O)[O-].Cn1cc[nH+]c1 + O
– | – | – | – | – | – | – | – | – | – | – | – | – | – | – | – | 1.002 | 0.89 | 0.797 | 0.651 | O + CC(=O)[O-].Cn1cc[nH+]c1
